In patent US20080045498A1, “[…] INHIBITORS” (Genelabs Technologies, Inc., priority 2006, published 2008) one finds inhibition data, which are given here for 13 compounds.

In general, inhibition refers to the share of the control response that was lost under treatment. Low readings indicate a weak effect, high ones a strong effect.

In the experiment the test system is HCV RNA dependent RNA polymerase. Nature of the experiment: HCV replicon assay (luciferase, Huh-lucubineo-ET cells). Type of experiment: cell-based. The conditions noted are these: Hepatitis C virus; tested at 25 μM; ET (Huh-lucubineo-ET) replicon cell line; luciferase activity measured 48-72 hours after compound addition; relative to no compound control. As to the method:
A cell line, ET (Huh-lucubineo-ET) was used for screening of compounds for inhibiting HCV RNA dependent RNA polymerase. The ET cell line was stably transfected with RNA transcripts harboring a I389luc-ubi-neo/NS3-3′/ET; replicon with firefly luciferase-ubiquitin-neomycin phosphotransferase fusion protein and EMCV-IRES driven NS3-5B polyprotein containing the cell culture adaptive mutations (E1202G; T1280I; K1846T) (Krieger at al, 2001 and unpublished). The ET cells were grown in DMEM (Dulbeco's Modified Eagle's Medium), supplemented with 10% fetal calf serum, 2 mM Glutamine, Penicillin (100 IU/mL)/Streptomycin (100 μg/mL), 1× nonessential amino acids, and 250 μg/mL G418 (“Geneticin”). Reagents are all available through Life Technologies (Bethesda, Md.). The cells were plated at 0.5−1.0×10^4 cells/well in the 96 well plates and incubated for 24 hrs before adding test compound. The compounds were added to the cells to achieve a final concentration of 0.1 nM to 50 μM and a final DMSO (dimethylsulfoxide) concentration of 0.5%. Luciferase activity was measured 48-72 hours later by adding a lysis buffer and the substrate (Catalog number Glo-lysis buffer E2661 and Bright-Glo luciferase system E2620 Promega, Madison, Wis.). Cells should not be too confluent during the assay. Percent inhibition of replication data is plotted relative to no compound control. Under the same condition, cytotoxicity of the compounds were determined using cell proliferation reagent, WST-1 (Roche, Germany). The compounds showing antiviral activities, but no significant cytotoxicities were chosen to determine EC50 and TC50 the effective concentration and toxic concentration at which 50% of the maximum inhibition is observed. For these determinations, a 10 point, 2-fold serial dilution for each compound was used, which spans a concentration range of 1000 fold. EC50 and similarly TC50 values were calculated by fitting % inhibition at each concentration to the following equation: % inhibition=100%/[(EC50/[I])b+1] where b is Hill's coefficient.
In turn, `O=C(O)c1ccc2c(C3CCCCC3)c3n(c2c1)CCCCn1c-3nc2ccccc21` [Compound 226] registered an inhibition at 25 µM of 23%.

`O=C(O)c1ccc2c(C3CCCCC3)c3n(c2c1)CCCCn1c-3cc2ccccc21` [Compound 228] showed an inhibition at 25 µM of 97%.

Compound `O=C(O)c1ccc2c(C3CCCCC3)c3n(c2c1)CCCCn1c-3cc2c(OCc3ccccc3)cccc21` [Compound 230] gave an inhibition at 25 µM of 75%.

In the case of `O=C(O)c1ccc2c(C3CCCCC3)c3n(c2c1)CCCCn1c-3cc2cc(OCc3ccccc3)ccc21` [Compound 231], the inhibition at 25 µM amounted to 96%.

Take `O=C(O)c1ccc2c(C3CCCCC3)c3n(c2c1)CCCCn1c-3cc2cc(O)ccc21` [Compound 234]: the inhibition at 25 µM was 99%.

`Cc1nc(C)c(-c2ccc3c4c(ccc3n2)-c2c(C3CCCCC3)c3ccc(C(=O)O)cc3n2CC(=O)N4)s1` [Compound 237] displayed an inhibition at 25 µM of 100%.

`O=C(O)c1ccc2c(C3CCCCC3)c3n(c2c1)CCCCCn1c-3cc2ccccc21` [Compound 229]: the inhibition at 25 µM is 86%.

In turn, `COc1ccc2cc3n(c2c1)CCCCn1c-3c(C2CCCCC2)c2ccc(C(=O)O)cc21` [Compound 235] gave an inhibition at 25 µM of 99%.

As to `COc1ccc2c(c1)cc1n2CCCCn2c-1c(C1CCCCC1)c1ccc(C(=O)O)cc12` [Compound 233], the inhibition at 25 µM stood at 96%.

For `O=C(O)c1ccc2c(C3CCCCC3)c3n(c2c1)CCCCn1c-3cc2ccc(OCc3ccccc3)cc21` [Compound 232], at 25 µM the inhibition was 91%.

Turning to `O=C(O)c1ccc2c(C3CCCCC3)c3n(c2c1)CCCCn1c-3cc2ccc(O)cc21` [Compound 236], 25 µM produced 100% inhibition.

Take `O=C(O)c1ccc2c(C3CCCCC3)c3n(c2c1)CCCn1c-3nc2ccccc21` [Compound 225]: the inhibition at 25 µM is 7%.

Regarding `O=C(O)c1ccc2c(C3CCCCC3)c3n(c2c1)CCCn1c-3cc2ccccc21` [Compound 227], at 25 µM the inhibition was 94%.
